Test results published in PubChem BioAssay AID250 (DTP/NCI, 2004).
Values joined by “and” are separate entries in the source; they are usually repeats but may differ in a detail not shown here. Identical values can stand only once. Inconclusive results and toxic doses are left out.

System: BDF1 mice, L1210 leukemia sc, survival T/C
Assay: NCI In Vivo Anticancer Drug Screen. Data for tumor model L1210 Leukemia (subcutaneous) in B6D2F1 (BDF1) mice
Conditions: higher = longer survival
Procedure, shortened: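 Tumors were transplanted into mice, the animals were treated with compound, survival or tumor size was then measured, and treated values were divided by vehicle-control values.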

SMILES: O=P1(N(CCCl)CCCl)NCCCO1 (centres undefined)
- T/C (endpoint: mean survival time, dose: 70.0 mg/kg/injection, schedule: Q01DX001 (ip), vehicle: saline): 161 % of control
- T/C (endpoint: mean survival time, dose: 100.0 mg/kg/injection, schedule: Q08DX003 (sc), vehicle: saline): 190 % of control
- T/C (endpoint: mean survival time, dose: 140.0 mg/kg/injection, schedule: Q01DX001 (ip), vehicle: saline): 180 % of control
- T/C (endpoint: mean survival time, dose: 200.0 mg/kg/injection, schedule: Q01DX001 (ip), vehicle: saline): 219 % of control
- T/C (endpoint: mean survival time, dose: 200.0 mg/kg/injection, schedule: Q08DX003 (sc), vehicle: saline): 221 % of control
- T/C (endpoint: mean survival time, dose: 280.0 mg/kg/injection, schedule: Q01DX001 (ip), vehicle: saline): 232 % of control
- T/C (endpoint: mean survival time, dose: 400.0 mg/kg/injection, schedule: Q08DX003 (sc), vehicle: saline): 171 % of control
- T/C (endpoint: mean survival time, dose: 560.0 mg/kg/injection, schedule: Q01DX001 (ip), vehicle: saline): 91 % of control
- T/C (endpoint: median survival time, dose: 6.25 mg/kg/injection, schedule: Q01DX009 (ip), vehicle: saline): 104 % of control
- T/C (endpoint: median survival time, dose: 6.25 mg/kg/injection, schedule: Q01DX009 (sc), vehicle: saline): 98 % of control and 101 % of control
- T/C (endpoint: median survival time, dose: 8.4 mg/kg/injection, schedule: Q01DX Z (ip), vehicle: saline): 100 % of control
- T/C (endpoint: median survival time, dose: 10.8 mg/kg/injection, schedule: Q01DX001 (ip), vehicle: saline): 150 % of control
- T/C (endpoint: median survival time, dose: 12.5 mg/kg/injection, schedule: Q01DX009 (sc), vehicle: saline): 107 % of control and 112 % of control
- T/C (endpoint: median survival time, dose: 14.0 mg/kg/injection, schedule: Q01DX Z (ip), vehicle: saline): 110 % of control and 117 % of control
- T/C (endpoint: median survival time, dose: 14.0 mg/kg/injection, schedule: Q01DX Z (oral), vehicle: saline): 104 % of control
- T/C (endpoint: median survival time, dose: 14.0 mg/kg/injection, schedule: Q01DX Z (sc), vehicle: other): 110 % of control
- T/C (endpoint: median survival time, dose: 14.0 mg/kg/injection, schedule: Q#A X Z (sc), vehicle: saline): 220 % of control
- T/C (endpoint: median survival time, dose: 18.0 mg/kg/injection, schedule: Q01DX001 (ip), vehicle: saline): 200 % of control
- T/C (endpoint: median survival time, dose: 23.0 mg/kg/injection, schedule: Q01DX Z (ip), vehicle: saline): 165 % of control
- T/C (endpoint: median survival time, dose: 23.0 mg/kg/injection, schedule: Q01DX Z (oral), vehicle: saline): 120 % of control
- T/C (endpoint: median survival time, dose: 23.0 mg/kg/injection, schedule: Q01DX Z (sc), vehicle: other): 195 % of control
- T/C (endpoint: median survival time, dose: 23.0 mg/kg/injection, schedule: Q## X Z (sc), vehicle: saline): 110 % of control
- T/C (endpoint: median survival time, dose: 25.0 mg/kg/injection, schedule: Q01DX009 (ip), vehicle: saline): 122 % of control
- T/C (endpoint: median survival time, dose: 39.0 mg/kg/injection, schedule: Q01DX Z (ip), vehicle: saline): 243 % of control
- T/C (endpoint: median survival time, dose: 39.0 mg/kg/injection, schedule: Q01DX Z (oral), vehicle: saline): 155 % of control and 215 % of control and 221 % of control
- T/C (endpoint: median survival time, dose: 39.0 mg/kg/injection, schedule: Q02DX Z (sc), vehicle: saline): 225 % of control
- T/C (endpoint: median survival time, dose: 39.0 mg/kg/injection, schedule: Q07DX Z (sc), vehicle: saline): 113 % of control and 115 % of control and 123 % of control
- T/C (endpoint: median survival time, dose: 39.0 mg/kg/injection, schedule: Q## X Z (sc), vehicle: saline): 150 % of control
- T/C (endpoint: median survival time, dose: 39.0 mg/kg/injection, schedule: Q#A X Z (sc), vehicle: saline): 230 % of control
- T/C (endpoint: median survival time, dose: 50.0 mg/kg/injection, schedule: Q01DX009 (ip), vehicle: saline): 162 % of control
- T/C (endpoint: median survival time, dose: 50.0 mg/kg/injection, schedule: Q01DX009 (sc), vehicle: saline): 163 % of control and 181 % of control
- T/C (endpoint: median survival time, dose: 50.0 mg/kg/injection, schedule: Q08DX003 (sc), vehicle: saline): 122 % of control
- T/C (endpoint: median survival time, dose: 65.0 mg/kg/injection, schedule: Q01DX Z (ip), vehicle: saline): 213 % of control
- T/C (endpoint: median survival time, dose: 65.0 mg/kg/injection, schedule: Q01DX Z (oral), vehicle: saline): 161 % of control and 182 % of control
- T/C (endpoint: median survival time, dose: 65.0 mg/kg/injection, schedule: Q01DX Z (sc), vehicle: other): 240 % of control
- T/C (endpoint: median survival time, dose: 65.0 mg/kg/injection, schedule: Q07DX Z (sc), vehicle: saline): 165 % of control and 175 % of control
- T/C (endpoint: median survival time, dose: 65.0 mg/kg/injection, schedule: Q#A X Z (sc), vehicle: saline): 150 % of control
- T/C (endpoint: median survival time, dose: 69.0 mg/kg/injection, schedule: Q07DX003 (sc), vehicle: saline): 188 % of control and 190 % of control
- T/C (endpoint: median survival time, dose: 100.0 mg/kg/injection, schedule: Q07DX003 (sc), vehicle: saline): 244 % of control
- T/C (endpoint: median survival time, dose: 100.0 mg/kg/injection, schedule: Q07DX004 (sc), vehicle: saline): 211 % of control and 213 % of control
- T/C (endpoint: median survival time, dose: 100.0 mg/kg/injection, schedule: Q16DX002 (sc), vehicle: saline): 157 % of control and 161 % of control (2×)
- T/C (endpoint: median survival time, dose: 100.0 mg/kg/injection, schedule: Q## X002 (sc), vehicle: saline): 155 % of control
- T/C (endpoint: median survival time, dose: 108.0 mg/kg/injection, schedule: Q01DX001 (sc), vehicle: other): 160 % of control
- T/C (endpoint: median survival time, dose: 108.0 mg/kg/injection, schedule: Q01DX014 (sc), vehicle: saline): 163 % of control
- T/C (endpoint: median survival time, dose: 108.0 mg/kg/injection, schedule: Q01DX Z (ip), vehicle: saline): 113 % of control
- T/C (endpoint: median survival time, dose: 108.0 mg/kg/injection, schedule: Q01DX Z (oral), vehicle: saline): 208 % of control and 240 % of control
- T/C (endpoint: median survival time, dose: 108.0 mg/kg/injection, schedule: Q01DX Z (sc), vehicle: other): 180 % of control
- T/C (endpoint: median survival time, dose: 108.0 mg/kg/injection, schedule: Q07DX Z (sc), vehicle: saline): 171 % of control
- T/C (endpoint: median survival time, dose: 108.0 mg/kg/injection, schedule: Q08DX003 (ip), vehicle: saline): 109 % of control
- T/C (endpoint: median survival time, dose: 180.0 mg/kg/injection, schedule: Q01DX001 (sc), vehicle: other): 191 % of control
- T/C (endpoint: median survival time, dose: 180.0 mg/kg/injection, schedule: Q01DX014 (sc), vehicle: saline): 217 % of control
- T/C (endpoint: median survival time, dose: 180.0 mg/kg/injection, schedule: Q02DX Z (sc), vehicle: saline): 170 % of control
- T/C (endpoint: median survival time, dose: 180.0 mg/kg/injection, schedule: Q07DX Z (sc), vehicle: saline): 195 % of control and 226 % of control
- T/C (endpoint: median survival time, dose: 180.0 mg/kg/injection, schedule: Q08DX003 (ip), vehicle: saline): 121 % of control
- T/C (endpoint: median survival time, dose: 200.0 mg/kg/injection, schedule: Q01DX001 (ip), vehicle: saline): 200 % of control and 205 % of control
- T/C (endpoint: median survival time, dose: 200.0 mg/kg/injection, schedule: Q16DX002 (sc), vehicle: saline): 183 % of control and 206 % of control (2×)
- T/C (endpoint: median survival time, dose: 200.0 mg/kg/injection, schedule: Q## X002 (sc), vehicle: saline): 180 % of control
- T/C (endpoint: median survival time, dose: 256.0 mg/kg/injection, schedule: Q01DX001 (sc), vehicle: saline): 213 % of control and 215 % of control
- T/C (endpoint: median survival time, dose: 300.0 mg/kg/injection, schedule: Q01DX001 (ip), vehicle: saline): 240 % of control and 242 % of control
- T/C (endpoint: median survival time, dose: 300.0 mg/kg/injection, schedule: Q01DX001 (sc), vehicle: other): 243 % of control
- T/C (endpoint: median survival time, dose: 300.0 mg/kg/injection, schedule: Q01HX002 (ip), vehicle: saline): 113 % of control
- T/C (endpoint: median survival time, dose: 300.0 mg/kg/injection, schedule: Q07DX Z (sc), vehicle: saline): 217 % of control and 219 % of control
- T/C (endpoint: median survival time, dose: 300.0 mg/kg/injection, schedule: Q08DX003 (ip), vehicle: saline): 113 % of control
- T/C (endpoint: median survival time, dose: 300.0 mg/kg/injection, schedule: Q16DX002 (ip), vehicle: saline): 115 % of control
- T/C (endpoint: median survival time, dose: 320.0 mg/kg/injection, schedule: Q01DX001 (sc), vehicle: saline): 235 % of control and 240 % of control
- T/C (endpoint: median survival time, dose: 400.0 mg/kg/injection, schedule: Q07DX004 (sc), vehicle: saline): 166 % of control
- T/C (endpoint: median survival time, dose: 400.0 mg/kg/injection, schedule: Q16DX002 (sc), vehicle: saline): 222 % of control and 239 % of control (2×)
- T/C (endpoint: median survival time, dose: 400.0 mg/kg/injection, schedule: Q## X002 (sc), vehicle: saline): 220 % of control
- T/C (endpoint: median survival time, dose: 500.0 mg/kg/injection, schedule: Q01DX001 (sc), vehicle: other): 217 % of control
